The results in this text go back to patent publication US4492692A, “Cephalosporin derivatives” (Imperial Chemical Industries PLC, priority 1980, dated 1985).

As usually defined, the MIC is the lowest concentration that inhibits growth of the organism. Read a low MIC as inhibition by little substance.

The structures appear in SMILES notation. ≈ marks a conversion by molar mass, not a printed value.

Common to all, as to assay: MIC by agar-dilution technique, Jewell and Pearmain agar
What all share (assay type): cell-based

One assay concerns E. coli. The following applies: Escherichia coli, Code No. A8, inoculum ~10^5 CFU. An excerpt:
(§1) The results set out in the following Table are illustrative of the biological activity of the compounds of the present invention. […] The following results are those obtained on a standard in vitro test system using Jewell and Pearmain agar medium. The antibacterial activity is described in terms of the minimum inhibitory concentration (MIC) determined by agar-dilution technique with an inoculum size of ~10^5 CFU.

For the next assay, the system named is Ent. cloacae. The following applies: Enterobacter cloacae, Code No. A13, inoculum ~10^5 CFU.
Description: as §1

The test system of the next assay is K. aerogenes. The following applies: Klebsiella aerogenes, Code No. A10, inoculum ~10^5 CFU.
Description: as §1

The next assay relates to Proteus mirabilis. As to conditions: Code No. A18, inoculum ~10^5 CFU.
Description: as §1

For another assay, the system named is Ps. aeruginosa. The following applies: Pseudomonas aeruginosa, Code No. A21, inoculum ~10^5 CFU.
Description: as §1

A further assay deals with Salmonella dublin. As to conditions: Salmonella enterica, Code No. A20, inoculum ~10^5 CFU.
Description: as §1

The next assay deals with Serratia marescens. As to conditions: Code No. A16, inoculum ~10^5 CFU.
Description: as §1

For another assay, the system named is Staph. aureus. The following applies: Staphylococcus aureus, Code No. A6, inoculum ~10^5 CFU.
Description: as §1

For a further assay, the system named is Strep. pyogenes. As to conditions: Streptococcus pyogenes, Code No. A1, inoculum ~10^5 CFU.
Description: as §1

In the case of `C=CCc1c[nH]c(N[C@@H]2C(=O)N3C(C(=O)O)=C(CSc4nnnn4C)CS[C@H]23)n1` [Example 6.1, 7-(4-allylimidazol-2-yl)amino-3-(1-methyl-1H-tetrazol-5-yl)thiomethylceph-3-em-4-carboxylic acid], the MIC is 0.016 µg/mL (≈ 0.0368 µM) in the assay with E. coli; 16 µg/mL (≈ 36.8 µM) in the assay with Ent. cloacae; 0.03 µg/mL (≈ 0.069 µM) in the assay with K. aerogenes; 2 µg/mL (≈ 4.6 µM) against Proteus mirabilis; more than 256 µg/mL in the assay with Ps. aeruginosa; 0.016 µg/mL (≈ 0.0368 µM) against Salmonella dublin. The MIC is 0.25 µg/mL (≈ 0.575 µM) in the assay with Serratia marescens, 32 µg/mL (≈ 73.6 µM) with Staph. aureus and 8 µg/mL (≈ 18.4 µM) against Strep. pyogenes.
For the molecule `O=C(O)C1=C(CSc2c[nH]nn2)CS[C@@H]2[C@H](Nc3nc(CCNC(=O)C(F)(F)F)c[nH]3)C(=O)N12` [Example 10, 7-[4-(2-trifluoroacetylaminoethyl)imidazol-2-yl]amino-3-(1H-1,2,3-triazol-4-yl)thiomethylceph-3-em-4-carboxylic acid], the MIC with E. coli was 0.03 µg/mL (≈ 0.0579 µM); against Ent. cloacae, 16 µg/mL (≈ 30.9 µM); against K. aerogenes it was 0.06 µg/mL (≈ 0.116 µM); against Proteus mirabilis it was 2 µg/mL (≈ 3.86 µM); against Ps. aeruginosa, more than 256 µg/mL; in the assay with Salmonella dublin it was 0.016 µg/mL (≈ 0.0309 µM). Moreover, the MIC with Serratia marescens was 16 µg/mL (≈ 30.9 µM); in the assay with Staph. aureus, 64 µg/mL (≈ 123 µM); in the assay with Strep. pyogenes, 64 µg/mL (≈ 123 µM).
In the case of `CNC(=O)OCCCc1c[nH]c(N[C@@H]2C(=O)N3C(C(=O)O)=C(COC(C)=O)CS[C@H]23)n1` [Example 9.2, 7-[4-(3-methylcarbamoyloxypropyl)imidazol-2-yl]amino-3-acetoxymethylceph-3-em-4-carboxylic acid], the MIC is 0.03 µg/mL (≈ 0.0662 µM) in the assay with E. coli; 64 µg/mL (≈ 141 µM) in the assay with Ent. cloacae; 0.06 µg/mL (≈ 0.132 µM) against K. aerogenes; 8 µg/mL (≈ 17.6 µM) in the assay on Proteus mirabilis; more than 256 µg/mL in the assay with Ps. aeruginosa; 0.06 µg/mL (≈ 0.132 µM) against Salmonella dublin. Besides, the minimum inhibitory concentration (MIC) was determined as 8 µg/mL (≈ 17.6 µM) in the assay on Serratia marescens, 64 µg/mL (≈ 141 µM) with Staph. aureus and 32 µg/mL (≈ 70.6 µM) against Strep. pyogenes.
Consider `CC(=O)OCC1=C(C(=O)O)N2C(=O)[C@@H](Nc3nc(Cc4ccccc4)c[nH]3)[C@H]2SC1` [Example 1, 7-(4-benzylimidazol-2-yl)amino-3-acetoxymethylceph-3-em-4-carboxylic acid], for which the MIC in the assay on E. coli is 0.25 µg/mL (≈ 0.583 µM); in the assay on Ent. cloacae, 128 µg/mL (≈ 299 µM); in the assay on K. aerogenes, 1 µg/mL (≈ 2.33 µM); with Proteus mirabilis, 32 µg/mL (≈ 74.7 µM); in the assay on Ps. aeruginosa it was more than 256 µg/mL; in the assay on Salmonella dublin, 0.5 µg/mL (≈ 1.17 µM). Moreover, the MIC with Serratia marescens is 64 µg/mL (≈ 149 µM); with Staph. aureus it was 32 µg/mL (≈ 74.7 µM).
On to `O=C(O)C1=C(CSc2c[nH]nn2)CS[C@@H]2[C@H](Nc3nc(CCCNC(=S)NCC(F)(F)F)c[nH]3)C(=O)N12` [Example 80, 7-[4-(3-[3-(2,2,2-trifluoroethyl)thioureido]propyl)imidazol-2-yl]amino-3-(1H-1,2,3-triazol-4-yl)thiomethylceph-3-em-4-carboxylic acid], for which the minimum inhibitory concentration (MIC) in the assay on E. coli was 1 µg/mL (≈ 1.73 µM); with Ent. cloacae it was 4 µg/mL (≈ 6.92 µM); in the assay with K. aerogenes, 2 µg/mL (≈ 3.46 µM); in the assay with Proteus mirabilis it was 4 µg/mL (≈ 6.92 µM); in the assay on Ps. aeruginosa, more than 128 µg/mL; against Salmonella dublin, 0.5 µg/mL (≈ 0.866 µM). Moreover, the MIC against Serratia marescens stood at 64 µg/mL (≈ 111 µM); against Staph. aureus it was 32 µg/mL (≈ 55.4 µM); against Strep. pyogenes, 32 µg/mL (≈ 55.4 µM).
Turning to `Cc1nnc(SCC2=C(C(=O)O)N3C(=O)[C@@H](Nc4nc(CCNC(=O)C(F)(F)F)c[nH]4)[C@H]3SC2)s1` [Example 4.2, 7-[4-(2-trifluoroacetylaminoethyl)imidazol-2-yl]amino-3-(2-methyl-1,3,4-thiadiazol-5-yl)thiomethylceph-3-em-4-carboxylic acid], the MIC is 0.12 µg/mL (≈ 0.218 µM) against E. coli; 16 µg/mL (≈ 29.1 µM) against Ent. cloacae; 0.12 µg/mL (≈ 0.218 µM) in the assay with K. aerogenes; 16 µg/mL (≈ 29.1 µM) against Proteus mirabilis; more than 256 µg/mL against Ps. aeruginosa; 0.25 µg/mL (≈ 0.455 µM) in the assay with Salmonella dublin. Besides, the MIC is 4 µg/mL (≈ 7.28 µM) against Serratia marescens, 32 µg/mL (≈ 58.2 µM) in the assay with Staph. aureus and 16 µg/mL (≈ 29.1 µM) against Strep. pyogenes.
Turning to `Cn1nnnc1SCC1=C(C(=O)O)N2C(=O)[C@@H](Nc3nc(CCC#N)c[nH]3)[C@H]2SC1` [Example 16, 7-[4-(2-cyanoethyl)imidazol-2-yl]amino-3-(1-methyl-1H-tetrazol-5-yl)thiomethylceph-3-em-4-carboxylic acid], the minimal inhibitory concentration (MIC) against E. coli was 0.016 µg/mL (≈ 0.0358 µM); against Ent. cloacae it was 4 µg/mL (≈ 8.94 µM); against K. aerogenes, 0.06 µg/mL (≈ 0.134 µM); against Proteus mirabilis, 1 µg/mL (≈ 2.23 µM); against Ps. aeruginosa, more than 128 µg/mL; in the assay on Salmonella dublin, 0.008 µg/mL (≈ 0.0179 µM). The minimal inhibitory concentration (MIC) in the assay on Serratia marescens was determined as 2 µg/mL (≈ 4.47 µM); against Staph. aureus it was 16 µg/mL (≈ 35.8 µM); in the assay on Strep. pyogenes it was 8 µg/mL (≈ 17.9 µM).
